Measurements taken from patent US20250241879A1, “CAPSAICIN SEQUENTIAL DOSING METHOD FOR TREATMENT OF KNEE JOINT PAIN” (priority 2018, published 2025).

Columns and labels:
[1] = system: human patients with knee osteoarthritis; experiment: Procedure pain (NPRS) due to intraarticular trans-capsaicin, Breg pad vs Elasto-Gel wrap cooling (Example 8); type: in vivo; conditions: four patients (Example 8), 1 mg intraarticular
Description: (§1) Human patients experiencing osteoarthritic knee joint pain were subjected to two different protocols for intraarticular administration of trans-capsaicin. Temporary pain expected due to administration of capsaicin was analyzed, along with the intraarticular temperature of the knee joint and the temperature of the patient's skin in the area to be cooled.
One of the protocols utilized a Breg Knee WrapOn Polar Pad (as illustrated in FIG. 1) that utilizes circulating ice-water to achieve cooling, where the pad is placed on skin surrounding the knee in order to cool the knee joint. The other protocol utilized an Elasto-Gel All Purpose Therapy Wrap measuring 6 inches by 24 inches in size, in order to cool the knee joint. A temperature probe was placed into the intraarticular space of the patient's knee joint to measure intraarticular temperature of the knee joint. A temperature probe was also placed on the skin in the area to be cooled in order to measure skin temperature in the area to be cooled.
Experimental procedure used was the same as described in Example 8 herein, except that an Elasto-Gel All Purpose Therapy Wrap measuring 6 inches by 24 inches in size was used to cool the knee joint, in lieu of the ice pack. The Elasto-Gel All Purpose Therapy Wrap was removed from a freezer (approximately 0° F.) just prior to use.

[2] = system: human patients with bilateral knee osteoarthritis; experiment: Procedure pain (NPRS) due to intraarticular trans-capsaicin, Breg pad vs ice pack cooling (Example 7); type: in vivo; conditions: 1 mg intraarticular
Description: as §1
(§2) One of the protocols utilized a Breg Knee WrapOn Polar Pad (as illustrated in FIG. 1) that utilizes circulating ice-water to achieve cooling, where the pad is placed on skin surrounding the knee in order to cool the knee joint. The other protocol utilized ice-pack cooling, in which the patient's knee was wrapped with a stockinette and then the ice pack was positioned on top of the stockinette so that the ice pack is positioned over the patient's patella to thereby cool the knee joint. The ice pack was a LEADSTAR pain relief reusable cold therapy ice pack (size=6 inches). A temperature probe was placed into the intraarticular space of the patient's knee joint to measure intraarticular temperature of the knee joint. A temperature probe was also placed on the skin in the area to be cooled in order to measure skin temperature in the area to be cooled.
Five human patients suffering from moderate to severe painful bilateral knee osteoarthritis were recruited for this study evaluating the impact that cooling protocol has on the magnitude of temporary pain experienced by the patient due to administration of capsaicin. […] Patients that participated in the study passed the following screening criteria and meet the patient inclusion and exclusion criteria are set forth below. As part of patient screening, patients received an intradermal injection of 100 μL (100 μg) capsaicin into the non-dominant volar forearm. To be eligible to enter the study, patients were able to tolerate the capsaicin injection. Screening patients rated the pain from capsaicin injection at 5, 10, 20, and 30 minutes after injection using a 0-10 Numerical Pain Rating Scale, where “0” equals no pain and “10” equals worst possible pain.
as §2, with “ice pack (having a surface for application to the patient, wherein said surface has a diameter of approximately six inches) is positioned” for “ice pack is positioned”, “knee joint. A temperature” for “knee joint. The ice pack was a LEADSTAR pain relief reusable cold therapy ice pack (size=6 inches). A temperature”, “knee joint. At the discretion of the physician performing the procedure, in order to reduce discomfort for the patient, the protocol authorized the physician to instill a volume of 1-2 cc of 2% w/w lidocaine (without epinephrine) into the skin and subcutaneous tissue of the knee at the site of intra-articular probe insertion. A temperature” for “knee joint. A temperature”
One the first day of the study, patients were randomized so that (i) three patients receiving cooling of the knee joint using the Breg Knee WrapOn Polar Pad and (ii) two patients will receive ice-pack cooling over the patella as set forth above. Patients were subjected to the following procedure: • Placement of intraarticular temperature probe and skin temperature probe. […]

Structure (SMILES): COc1cc(CNC(=O)CCCCC=CC(C)C)ccc1O [trans-capsaicin, N-[(4-hydroxy-3-methoxyphenyl)methyl]-8-methylnon-6-enamide]
- Knee Pain (NPRS) ([1]; Ice-Gel Pack (Elasto-Gel wrap), 20 min): 0.8 (+/−0.5)
- Knee Pain (NPRS) ([1]; Ice-Gel Pack (Elasto-Gel wrap), 30 min): 0.5 (+/−0.6)
- Knee Pain (NPRS) ([1]; Ice-Gel Pack (Elasto-Gel wrap), 50 min): 0.8 (+/−1.0)
- Knee Pain (NPRS) ([1]; Ice-Gel Pack (Elasto-Gel wrap), 70 min): 4.8 (+/−3.2)
- Knee Pain (NPRS) ([1]; Ice-Gel Pack (Elasto-Gel wrap), 80 min): 4.3 (+/−3.0)
- Knee Pain (NPRS) ([1]; Ice-Gel Pack (Elasto-Gel wrap), 90 min): 3.0 (+/−1.8)
- Knee Pain (NPRS) ([1]; Ice-Gel Pack (Elasto-Gel wrap), 100 min): 2.8 (+/−1.5)
- Knee Pain (NPRS) ([1]; Ice-Gel Pack (Elasto-Gel wrap), 110 min): 2.8 (+/−2.1)
- Knee Pain (NPRS) ([1]; Ice-Gel Pack (Elasto-Gel wrap), 120 min): 4.5 (+/−3.3)
- Knee Pain (NPRS) ([1]; Ice-Gel Pack (Elasto-Gel wrap), 130 min): 3.0 (+/−1.4)
- Knee Pain (NPRS) ([1]; Ice-Gel Pack (Elasto-Gel wrap), Baseline): 1.0 (+/−0.8)
- Knee Pain (NPRS) ([1]; Standard Cooling Device (Breg pad), 20 min): 0.5 (+/−0.6)
- Knee Pain (NPRS) ([1]; Standard Cooling Device (Breg pad), 30 min): 0.5 (+/−0.6)
- Knee Pain (NPRS) ([1]; Standard Cooling Device (Breg pad), 50 min): 0.8 (+/−1.0)
- Knee Pain (NPRS) ([1]; Standard Cooling Device (Breg pad), 70 min): 2.5 (+/−3.7)
- Knee Pain (NPRS) ([1]; Standard Cooling Device (Breg pad), 80 min): 2.5 (+/−3.0)
- Knee Pain (NPRS) ([1]; Standard Cooling Device (Breg pad), 90 min): 2.5 (+/−2.4)
- Knee Pain (NPRS) ([1]; Standard Cooling Device (Breg pad), 100 min): 1.8 (+/−1.5)
- Knee Pain (NPRS) ([1]; Standard Cooling Device (Breg pad), 110 min): 1.8 (+/−1.5)
- Knee Pain (NPRS) ([1]; Standard Cooling Device (Breg pad), 120 min): 1.3 (+/−1.3)
- Knee Pain (NPRS) ([1]; Standard Cooling Device (Breg pad), 130 min): 1.5 (+/−1.0)
- Knee Pain (NPRS) ([1]; Standard Cooling Device (Breg pad), Baseline): 0.5 (+/−0.6)
- Knee Pain (NPRS) ([2]; Ice Pack cooling, 20 min, all five patients (Example 7)): 0.4 (+/−0.5)
- Knee Pain (NPRS) ([2]; Ice Pack cooling, 20 min, four patients (Example 7)): 0.5 (+/−0.6)
- Knee Pain (NPRS) ([2]; Ice Pack cooling, 30 min, all five patients (Example 7)): 0.3 (+/−0.5)
- Knee Pain (NPRS) ([2]; Ice Pack cooling, 30 min, four patients (Example 7)): 0.3 (+/−0.6)
- Knee Pain (NPRS) ([2]; Ice Pack cooling, 40 min, all five patients (Example 7)): 0.0
- Knee Pain (NPRS) ([2]; Ice Pack cooling, 40 min, four patients (Example 7)): 0.0
- Knee Pain (NPRS) ([2]; Ice Pack cooling, 50 min, all five patients (Example 7)): 0.3 (+/−0.5)
- Knee Pain (NPRS) ([2]; Ice Pack cooling, 50 min, four patients (Example 7)): 0.3 (+/−0.5)
- Knee Pain (NPRS) ([2]; Ice Pack cooling, 70 min, all five patients (Example 7)): 7.3 (+/−1.9)
- Knee Pain (NPRS) ([2]; Ice Pack cooling, 70 min, four patients (Example 7)): 7.3 (+/−1.9)
- Knee Pain (NPRS) ([2]; Ice Pack cooling, 80 min, all five patients (Example 7)): 5.4 (+/−3.7)
- Knee Pain (NPRS) ([2]; Ice Pack cooling, 80 min, four patients (Example 7)): 6.8 (+/−2.5)
- Knee Pain (NPRS) ([2]; Ice Pack cooling, 90 min, all five patients (Example 7)): 4.0 (+/−1.6)
- Knee Pain (NPRS) ([2]; Ice Pack cooling, 90 min, four patients (Example 7)): 4.3 (+/−1.7)
- Knee Pain (NPRS) ([2]; Ice Pack cooling, 100 min, all five patients (Example 7)): 3.2 (+/−1.6)
- Knee Pain (NPRS) ([2]; Ice Pack cooling, 100 min, four patients (Example 7)): 3.5 (+/−1.7)
- Knee Pain (NPRS) ([2]; Ice Pack cooling, 110 min, all five patients (Example 7)): 2.4 (+/−2.1)
- Knee Pain (NPRS) ([2]; Ice Pack cooling, 110 min, four patients (Example 7)): 2.8 (+/−2.2)
- Knee Pain (NPRS) ([2]; Ice Pack cooling, 120 min, all five patients (Example 7)): 1.8 (+/−1.3)
- Knee Pain (NPRS) ([2]; Ice Pack cooling, 120 min, four patients (Example 7)): 2.0 (+/−1.4)
- Knee Pain (NPRS) ([2]; Ice Pack cooling, 130 min, all five patients (Example 7)): 2.0 (+/−1.0)
- Knee Pain (NPRS) ([2]; Ice Pack cooling, 130 min, four patients (Example 7)): 2.3 (+/−1.0)
- Knee Pain (NPRS) ([2]; Ice Pack cooling, 140 min, all five patients (Example 7)): 1.8 (+/−1.1)
- Knee Pain (NPRS) ([2]; Ice Pack cooling, 140 min, four patients (Example 7)): 1.8 (+/−1.3)
- Knee Pain (NPRS) ([2]; Ice Pack cooling, 150 min, all five patients (Example 7)): 1.4 (+/−0.9)
- Knee Pain (NPRS) ([2]; Ice Pack cooling, 150 min, four patients (Example 7)): 1.3 (+/−1.0)
- Knee Pain (NPRS) ([2]; Ice Pack cooling, 160 min, all five patients (Example 7)): 1.0 (+/−1.4)
- Knee Pain (NPRS) ([2]; Ice Pack cooling, 160 min, four patients (Example 7)): 2.0
- Knee Pain (NPRS) ([2]; Ice Pack cooling, 170 min, all five patients (Example 7)): 0.5 (+/−0.7)
- Knee Pain (NPRS) ([2]; Ice Pack cooling, 170 min, four patients (Example 7)): 1.0
- Knee Pain (NPRS) ([2]; Ice Pack cooling, 180 min, all five patients (Example 7)): 7.0
- Knee Pain (NPRS) ([2]; Ice Pack cooling, 180 min, four patients (Example 7)): 7.0
- Knee Pain (NPRS) ([2]; Ice Pack cooling, 190 min, all five patients (Example 7)): 2.0
- Knee Pain (NPRS) ([2]; Ice Pack cooling, 190 min, four patients (Example 7)): 2.0
- Knee Pain (NPRS) ([2]; Ice Pack cooling, Baseline, all five patients (Example 7)): 1.0 (+/−2.2)
- Knee Pain (NPRS) ([2]; Ice Pack cooling, Baseline, four patients (Example 7)): 1.3 (+/−2.5)
- Knee Pain (NPRS) ([2]; Standard Cooling Device (Breg pad), 20 min, all five patients (Example 7)): 1.0 (+/−1.7)
- Knee Pain (NPRS) ([2]; Standard Cooling Device (Breg pad), 20 min, four patients (Example 7)): 1.3 (+/−1.9)
- Knee Pain (NPRS) ([2]; Standard Cooling Device (Breg pad), 30 min, all five patients (Example 7)): 1.2 (+/−1.1)
- Knee Pain (NPRS) ([2]; Standard Cooling Device (Breg pad), 30 min, four patients (Example 7)): 1.3 (+/−1.3)
- Knee Pain (NPRS) ([2]; Standard Cooling Device (Breg pad), 50 min, all five patients (Example 7)): 0.8 (+/−0.8)
- Knee Pain (NPRS) ([2]; Standard Cooling Device (Breg pad), 50 min, four patients (Example 7)): 1.0 (+/−0.8)
- Knee Pain (NPRS) ([2]; Standard Cooling Device (Breg pad), 70 min, all five patients (Example 7)): 5.0 (+/−2.9)
- Knee Pain (NPRS) ([2]; Standard Cooling Device (Breg pad), 70 min, four patients (Example 7)): 4.0 (+/−2.2)
- Knee Pain (NPRS) ([2]; Standard Cooling Device (Breg pad), 80 min, all five patients (Example 7)): 4.0 (+/−1.4)
- Knee Pain (NPRS) ([2]; Standard Cooling Device (Breg pad), 80 min, four patients (Example 7)): 3.8 (+/−1.5)
- Knee Pain (NPRS) ([2]; Standard Cooling Device (Breg pad), 90 min, all five patients (Example 7)): 2.8 (+/−1.6)
- Knee Pain (NPRS) ([2]; Standard Cooling Device (Breg pad), 90 min, four patients (Example 7)): 2.5 (+/−1.7)
- Knee Pain (NPRS) ([2]; Standard Cooling Device (Breg pad), 100 min, all five patients (Example 7)): 2.0 (+/−1.4)
- Knee Pain (NPRS) ([2]; Standard Cooling Device (Breg pad), 100 min, four patients (Example 7)): 1.8 (+/−1.5)
- Knee Pain (NPRS) ([2]; Standard Cooling Device (Breg pad), 110 min, all five patients (Example 7)): 1.2 (+/−0.8)
- Knee Pain (NPRS) ([2]; Standard Cooling Device (Breg pad), 110 min, four patients (Example 7)): 1.3 (+/−1.0)
- Knee Pain (NPRS) ([2]; Standard Cooling Device (Breg pad), 120 min, all five patients (Example 7)): 1.0 (+/−0.7)
- Knee Pain (NPRS) ([2]; Standard Cooling Device (Breg pad), 120 min, four patients (Example 7)): 1.0 (+/−0.8)
- Knee Pain (NPRS) ([2]; Standard Cooling Device (Breg pad), 130 min, all five patients (Example 7)): 0.6 (+/−0.5)
- Knee Pain (NPRS) ([2]; Standard Cooling Device (Breg pad), 130 min, four patients (Example 7)): 0.8 (+/−0.5)
- Knee Pain (NPRS) ([2]; Standard Cooling Device (Breg pad), 140 min, all five patients (Example 7)): 1.2 (+/−0.8)
- Knee Pain (NPRS) ([2]; Standard Cooling Device (Breg pad), 140 min, four patients (Example 7)): 1.0 (+/−0.8)
- Knee Pain (NPRS) ([2]; Standard Cooling Device (Breg pad), 150 min, all five patients (Example 7)): 1.2 (+/−1.1)
- Knee Pain (NPRS) ([2]; Standard Cooling Device (Breg pad), 150 min, four patients (Example 7)): 1.3 (+/−1.3)
- Knee Pain (NPRS) ([2]; Standard Cooling Device (Breg pad), Baseline, all five patients (Example 7)): 1.8 (+/−2.4)
- Knee Pain (NPRS) ([2]; Standard Cooling Device (Breg pad), Baseline, four patients (Example 7)): 2.0 (+/−2.7)
